Experimental data reported in patent US8273701B2, “Method for diagnosing non-small cell lung carcinoma” (Trustees of Dartmouth College, priority 2005, dated 2012).

Key:
HOP62 [1] = conditions: HOP62 transfected with Gli1 (efficiency approximately 25%) compared with HOP62 expressing an insertless expression vector
From the text: Results from DTP analysis of the NCI-60 screen were independently validated with each cell line to determine which NSCLC cell lines required Hedgehog activity to proliferate.

Gli1 = Gli1 knock-down by siRNA in A549 cells; assay type: cell-based, human; conditions: A549 cells transfected with siRNA
786-0 = test: NCI-60 panel screen, growth inhibition; assay type: cell-based, human; conditions: Renal
From the text: (§1) The NCI-60 panel of cell lines includes cells derived from melanoma, leukemia, and cancers of the lung, central nervous system, kidney, ovary, colon, breast and prostate. Advantageously, the NCI-60 panel has been screened with a plurality of compounds with the drug concentration resulting in 50% growth inhibition (GI50 determined for each cell line, so that a distinct “fingerprint” signature has been created for each small-molecule tested. Further, DNA microarray analyses have been performed on the NCI-60 panel, allowing for gene expression profile comparisons between drug-sensitive cell lines and drug-insensitive cell lines in response to a particular agent.
(§2) Results from the NCI-60 panel screen highlighted the important role that the Hedgehog pathway plays in breast and prostate cancer (Table 1). […] These findings underscore the broad importance of Hedgehog signaling in carcinogenesis.

A549 = test: NCI-60 panel screen, growth inhibition; assay type: cell-based, human; conditions: NSCLC
From the text: as §1, §2

ACHN = test: NCI-60 panel screen, growth inhibition; assay type: cell-based, human; conditions: Renal
From the text: as §1, §2

BT-549 = test: NCI-60 panel screen, growth inhibition; assay type: cell-based, human; conditions: Breast
From the text: as §1, §2

CAKI-1 = test: NCI-60 panel screen, growth inhibition; assay type: cell-based, human; conditions: Renal
From the text: as §1, §2

COLO 205 = test: NCI-60 panel screen, growth inhibition; assay type: cell-based, human; conditions: Colon
From the text: as §1, §2

DU-145 = test: NCI-60 panel screen, growth inhibition; assay type: cell-based, human; conditions: Prostate
From the text: as §1, §2

EKVX = test: NCI-60 panel screen, growth inhibition; assay type: cell-based, human; conditions: NSCLC
From the text: as §1, §2

HCT-116 = test: NCI-60 panel screen, growth inhibition; assay type: cell-based, human; conditions: Colon
From the text: as §1, §2

HCT-15 = test: NCI-60 panel screen, growth inhibition; assay type: cell-based, human; conditions: Colon
From the text: as §1, §2

HL-60 = test: NCI-60 panel screen, growth inhibition; assay type: cell-based, human; conditions: Leukemia
From the text: as §1, §2

HOP62 [2] = test: NCI-60 panel screen, growth inhibition; assay type: cell-based, human; conditions: NSCLC
From the text: as §1, §2

HS 578T = test: NCI-60 panel screen, growth inhibition; assay type: cell-based, human; conditions: Breast
From the text: as §1, §2

HT29 = test: NCI-60 panel screen, growth inhibition; assay type: cell-based, human; conditions: Colon
From the text: as §1, §2

IGROV1 = test: NCI-60 panel screen, growth inhibition; assay type: cell-based, human; conditions: Ovarian
From the text: as §1, §2

K-562 = test: NCI-60 panel screen, growth inhibition; assay type: cell-based, human; conditions: Leukemia
From the text: as §1, §2

KM12 = test: NCI-60 panel screen, growth inhibition; assay type: cell-based, human; conditions: Colon
From the text: as §1, §2

LOX IMVI = test: NCI-60 panel screen, growth inhibition; assay type: cell-based, human; conditions: Melanoma
From the text: as §1, §2

MCF7 = test: NCI-60 panel screen, growth inhibition; assay type: cell-based, human; conditions: Breast
From the text: as §1, §2

MDA MB-435 = test: NCI-60 panel screen, growth inhibition; assay type: cell-based, human; conditions: Breast
From the text: as §1, §2

MDA-MB-231/ATCC = test: NCI-60 panel screen, growth inhibition; assay type: cell-based, human; conditions: Breast
From the text: as §1, §2

MOLT-4 = test: NCI-60 panel screen, growth inhibition; assay type: cell-based, human; conditions: Leukemia
From the text: as §1, §2

NCI-H226 = test: NCI-60 panel screen, growth inhibition; assay type: cell-based, human; conditions: NSCLC
From the text: as §1, §2

NCI-H23 = test: NCI-60 panel screen, growth inhibition; assay type: cell-based, human; conditions: NSCLC
From the text: as §1, §2

NCI-H322M = test: NCI-60 panel screen, growth inhibition; assay type: cell-based, human; conditions: NSCLC
From the text: as §1, §2

NCI-H460 = test: NCI-60 panel screen, growth inhibition; assay type: cell-based, human; conditions: NSCLC
From the text: as §1, §2

NCI-H522 = test: NCI-60 panel screen, growth inhibition; assay type: cell-based, human; conditions: NSCLC
From the text: as §1, §2

NCI/ADR-RES = test: NCI-60 panel screen, growth inhibition; assay type: cell-based, human; conditions: Breast
From the text: as §1, §2

OVCAR-5 = test: NCI-60 panel screen, growth inhibition; assay type: cell-based, human; conditions: Ovarian
From the text: as §1, §2

OVCAR-8 = test: NCI-60 panel screen, growth inhibition; assay type: cell-based, human; conditions: Ovarian
From the text: as §1, §2

PC-3 = test: NCI-60 panel screen, growth inhibition; assay type: cell-based, human; conditions: Prostate
From the text: as §1, §2

RPMI-8226 = test: NCI-60 panel screen, growth inhibition; assay type: cell-based, human; conditions: Leukemia
From the text: as §1, §2

RXF 393 = test: NCI-60 panel screen, growth inhibition; assay type: cell-based, human; conditions: Renal
From the text: as §1, §2

SF-268 = test: NCI-60 panel screen, growth inhibition; assay type: cell-based, human; conditions: Central Nervous System
From the text: as §1, §2

SF-295 = test: NCI-60 panel screen, growth inhibition; assay type: cell-based, human; conditions: Central Nervous System
From the text: as §1, §2

SF-539 = test: NCI-60 panel screen, growth inhibition; assay type: cell-based, human; conditions: Central Nervous System
From the text: as §1, §2

SK-MEL-28 = test: NCI-60 panel screen, growth inhibition; assay type: cell-based, human; conditions: Melanoma
From the text: as §1, §2

SK-MEL-2 = test: NCI-60 panel screen, growth inhibition; assay type: cell-based, human; conditions: Melanoma
From the text: as §1, §2

SK-MEL-5 = test: NCI-60 panel screen, growth inhibition; assay type: cell-based, human; conditions: Melanoma
From the text: as §1, §2

SN12C = test: NCI-60 panel screen, growth inhibition; assay type: cell-based, human; conditions: Renal
From the text: as §1, §2

SNB-19 = test: NCI-60 panel screen, growth inhibition; assay type: cell-based, human; conditions: Central Nervous System
From the text: as §1, §2

SNB-75 = test: NCI-60 panel screen, growth inhibition; assay type: cell-based, human; conditions: Central Nervous System
From the text: as §1, §2

SR = test: NCI-60 panel screen, growth inhibition; assay type: cell-based, human; conditions: Leukemia
From the text: as §1, §2

SW-620 = test: NCI-60 panel screen, growth inhibition; assay type: cell-based, human; conditions: Colon
From the text: as §1, §2

TK-10 = test: NCI-60 panel screen, growth inhibition; assay type: cell-based, human; conditions: Renal
From the text: as §1, §2

U251 = test: NCI-60 panel screen, growth inhibition; assay type: cell-based, human; conditions: Central Nervous System
From the text: as §1, §2

UACC-257 = test: NCI-60 panel screen, growth inhibition; assay type: cell-based, human; conditions: Melanoma
From the text: as §1, §2

UACC-62 = test: NCI-60 panel screen, growth inhibition; assay type: cell-based, human; conditions: Melanoma
From the text: as §1, §2

UO-31 = test: NCI-60 panel screen, growth inhibition; assay type: cell-based, human; conditions: Renal
From the text: as §1, §2

## CC1=C2C[C@H]3[C@@H](CC=C4C[C@@H](O)CC[C@@]43C)[C@@H]2CC[C@]12O[C@@H]1C[C@H](C)CN[C@H]1[C@H]2C [Cyclopamine, cyclopamine]
HOP62 [1]
  Growth inhibitory activity in Gli1-transfected cells versus insertless expression vector: less growth inhibitory activity

## SEQ ID NO:9: siRNA having the desired Gli1 knock-down activity (Sanchez, et al. (2004)) (AACUCCACAGGCAUACAGGAU; chemistry not given here)
Gli1
  Reduction of Gli1 levels: approximately 90%

## Cc1nn(-c2ccccc2)c(C)c1/C=N/N1CCN(Cc2ccccc2)CC1 [SANT1]
786-0
  −log [GI50]: 4.64
A549
  −log [GI50]: 4.00
ACHN
  −log [GI50]: 4.28
BT-549
  −log [GI50]: 4.32
CAKI-1
  −log [GI50]: 4.00
COLO 205
  −log [GI50]: 4.39
DU-145
  −log [GI50]: 4.02
EKVX
  −log [GI50]: 4.00
HCT-116
  −log [GI50]: 4.55
HCT-15
  −log [GI50]: 4.52
HL-60
  −log [GI50]: 4.54
HOP62 [2]
  −log [GI50]: 4.79
HS 578T
  −log [GI50]: 4.00
HT29
  −log [GI50]: 4.37
IGROV1
  −log [GI50]: 5.08
K-562
  −log [GI50]: 4.51
KM12
  −log [GI50]: 4.50
LOX IMVI
  −log [GI50]: 4.36
MCF7
  −log [GI50]: 4.51
MDA MB-435
  −log [GI50]: 4.00
MDA-MB-231/ATCC
  −log [GI50]: 4.65
MOLT-4
  −log [GI50]: 4.57
NCI-H226
  −log [GI50]: 4.56
NCI-H23
  −log [GI50]: 4.38
NCI-H322M
  −log [GI50]: 5.08
NCI-H460
  −log [GI50]: 4.47
NCI-H522
  −log [GI50]: 4.11
NCI/ADR-RES
  −log [GI50]: 4.30
OVCAR-5
  −log [GI50]: 4.00
OVCAR-8
  −log [GI50]: 4.00
PC-3
  −log [GI50]: 4.60
RPMI-8226
  −log [GI50]: 4.70
RXF 393
  −log [GI50]: 4.00
SF-268
  −log [GI50]: 4.42
SF-295
  −log [GI50]: 4.00
SF-539
  −log [GI50]: 4.12
SK-MEL-28
  −log [GI50]: 4.09
SK-MEL-2
  −log [GI50]: 4.22
SK-MEL-5
  −log [GI50]: 4.73
SN12C
  −log [GI50]: 4.00
SNB-19
  −log [GI50]: 4.00
SNB-75
  −log [GI50]: 4.00
SR
  −log [GI50]: 4.86
SW-620
  −log [GI50]: 4.00
TK-10
  −log [GI50]: 4.54
U251
  −log [GI50]: 4.17
UACC-257
  −log [GI50]: 4.20
UACC-62
  −log [GI50]: 4.47
UO-31
  −log [GI50]: 4.18
